PubChem BioAssay AID330 (DTP/NCI, 2004)
Several values for one entry are separate records, joined by “and”; a condition that tells them apart may be missing. Equal values may be shown once. Inconclusive results and toxic doses are left out. The calls were made as follows: active = survival T/C of 150% or more; inactive = T/C below 125% in these data.

Test system: P388 leukemia ip, CD2F1 mice, survival T/C
Test: NCI In Vivo Anticancer Drug Screen. Data for tumor model P388 Leukemia (intraperitoneal) in CD2F1 (CDF1) mice
Conditions: endpoint: median survival time, higher = longer survival
Outline: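 Mice carrying the transplanted tumor received test compound or vehicle. Survival was recorded in each group, and the value is the treated-group measurement divided by that of the vehicle-treated control group.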

[1] = dose: 100.0 mg/kg/injection, schedule: Q04DX003 (ip), vehicle: saline with Tween-80
[2] = dose: 200.0 mg/kg/injection, schedule: Q04DX003 (ip), vehicle: saline with Tween-80
[3] = dose: 400.0 mg/kg/injection, schedule: Q04DX003 (ip), vehicle: saline with Tween-80
[4] = dose: 12.5 mg/kg/injection, schedule: Q01DX009 (ip), vehicle: saline with Tween-80
[5] = dose: 25.0 mg/kg/injection, schedule: Q01DX009 (ip), vehicle: saline with Tween-80
[6] = dose: 50.0 mg/kg/injection, schedule: Q01DX009 (ip), vehicle: saline with Tween-80

Measured: T/C

O=c1c(O)c(-c2ccc(O)c(O)c2)oc2cc(O)cc(O)c12
inactive: dose: 12.5 mg/kg/injection, schedule: Q03HX008 (ip), vehicle: saline with Tween-80 95 % of control | dose: 25.0 mg/kg/injection, schedule: Q03HX008 (ip), vehicle: saline with Tween-80 91 % of control | dose: 40.0 mg/kg/injection, schedule: Q01DX009 (ip), vehicle: saline with Tween-80 100 % of control | dose: 50.0 mg/kg/injection, schedule: Q03HX008 (ip), vehicle: saline with Tween-80 93 % of control | dose: 80.0 mg/kg/injection, schedule: Q01DX009 (ip), vehicle: saline with Tween-80 100 % of control | dose: 100.0 mg/kg/injection, schedule: Q01DX001 (ip), vehicle: saline with Tween-80 108 % of control | dose: 100.0 mg/kg/injection, schedule: Q03HX008 (ip), vehicle: saline with Tween-80 99 % of control | [1] 95 % of control | dose: 200.0 mg/kg/injection, schedule: Q01DX001 (ip), vehicle: saline with Tween-80 98 % of control | dose: 200.0 mg/kg/injection, schedule: Q03HX008 (ip), vehicle: saline with Tween-80 103 % of control | [2] 109 % of control | dose: 400.0 mg/kg/injection, schedule: Q01DX001 (ip), vehicle: saline with Tween-80 104 % of control | [3] 104 % of control | dose: 800.0 mg/kg/injection, schedule: Q01DX001 (ip), vehicle: saline with Tween-80 108 % of control

CCCC[N+]1(CC)CCCCC1
inactive: dose: 3.12 mg/kg/injection, schedule: Q01DX009 (ip), vehicle: saline 97 % of control | dose: 6.25 mg/kg/injection, schedule: Q01DX009 (ip), vehicle: saline 113 % of control | dose: 12.5 mg/kg/injection, schedule: Q01DX009 (ip), vehicle: saline 106 % of control

CN(C)C1C(=O)C(C(=O)NCNC(CO)(CO)CO)=C(O)C2(O)C(=O)C3=C(O)c4c(O)cccc4C(C)(O)C3CC12 (stereo unspecified)
inactive: dose: 50.0 mg/kg/injection, schedule: Q01DX005 (ip), vehicle: saline 92 % of control | dose: 100.0 mg/kg/injection, schedule: Q01DX005 (ip), vehicle: saline 101 % of control | dose: 200.0 mg/kg/injection, schedule: Q01DX005 (ip), vehicle: saline 100 % of control

CCC(C)(C)N=C(Nc1cccnc1)Nc1nccs1
inactive: [1] 92 % of control | [2] 94 % of control | [3] 87 % of control

OC(c1cc2cc(Cl)ccc2c2cc(C(F)(F)F)ccc12)C1CCCCN1 (stereo unspecified)
inactive: dose: 6.25 mg/kg/injection, schedule: Q01DX009 (ip), vehicle: saline with Tween-80 106 % of control | [4] 106 % of control

CC1=CC(=O)C2(OC3OC(C)C(O)C(O)C3O)C=COC(OC3OC(CO)C(O)C(O)C3O)C12 (stereo unspecified)
inactive: dose: 12.5 mg/kg/injection, schedule: Q01DX005 (ip), vehicle: Klucel (hydroxypropylcellulose) (HPC) 98 % of control | dose: 25.0 mg/kg/injection, schedule: Q01DX005 (ip), vehicle: Klucel (hydroxypropylcellulose) (HPC) 95 % of control | dose: 50.0 mg/kg/injection, schedule: Q01DX005 (ip), vehicle: Klucel (hydroxypropylcellulose) (HPC) 95 % of control | dose: 100.0 mg/kg/injection, schedule: Q01DX005 (ip), vehicle: Klucel (hydroxypropylcellulose) (HPC) 95 % of control | dose: 200.0 mg/kg/injection, schedule: Q01DX005 (ip), vehicle: Klucel (hydroxypropylcellulose) (HPC) 95 % of control

CC1=Nc2cc3ccccc3cc2N(C)/C1=C/C1=C(Cl)C(=O)c2ccccc2C1=O
inactive: [4] 96 % of control | [5] 100 % of control | [6] 92 % of control and 97 % of control | dose: 100.0 mg/kg/injection, schedule: Q01DX009 (ip), vehicle: saline with Tween-80 106 % of control | dose: 200.0 mg/kg/injection, schedule: Q01DX009 (ip), vehicle: saline with Tween-80 89 % of control

Clc1ccc(CSSC(Cl)(Cl)Cl)cc1
inactive: dose: 50.0 mg/kg/injection, schedule: Q01DX005 (ip), vehicle: acetone 102 % of control | dose: 100.0 mg/kg/injection, schedule: Q01DX005 (ip), vehicle: acetone 105 % of control | dose: 200.0 mg/kg/injection, schedule: Q01DX005 (ip), vehicle: acetone 107 % of control

CCOc1ccc2c(N/N=C/c3ccc(N(CCCl)CCCl)cc3)cc(C)nc2c1
inactive: [4] 96 % of control | [5] 94 % of control | [6] 99 % of control and 88 % of control
